Data as given in patent US5273989A, “3,5-disubstituted 2-isoxazolines and isoxazoles, agents containing them and their use” (Hoechst Aktiengesellschaft, priority 1990, dated 1993).
Structures can show the parent of a compound that is named as a salt. Where two headings read alike, the source gives them in different places.

Assays:
[1] = tested on: NMDA-stimulated 3H-acetylcholine release, striatum sections; assay: Inhibition of NMDA-stimulated 3H-acetylcholine release from striatum sections of the rat brain; format: cell-based
Procedure: 2. Inhibition of ^3 H-acetylcholine release from striatum sections of the rat brain
Test principle: For the test, fresh striatum sections from rat brain were rinsed with buffer solution in a special chamber and the release of the tritium-labeled acetylcholine was measured after stimulation with NMDA. Preparations having NMDA-antagonist action inhibit acetylcholine release.
Experimental protocol: The superfusion experiments were carried out by the method of Wichman et al. (Naunyn-Schmied. Arch. Pharmacol., 338 (1988), 623-631). Rat brain sections, 0.5 mm thick, were preincubated for 30 min in 2 ml of incubation medium which contains 0.1 μmol/l of ^3 H-choline having a specific activity of 80 Ci/mmol. In each of 6 superfusion chambers, a section was transferred and superfused for 90 min at a rate of 1.5 ml/min. 2 min fraction of the superfusate were continuously collected. Each section was superfused twice with 25 μmol/l of NMDA of two minutes each time in order to stimulate the release of acetylcholine. The first stimulus (S1) takes place between the 54th and the 56th minute and the 2nd stimulus (S2) between the 76th and 78th minute. The incubation medium contained, in mmol/l: NaCl 118, KCl 4.8, CaCl2 1.2, MgSO4 1.2, NaHCO3 25, KH2 PO4 1.2 and glucose 10. The medium was saturated with Carbogen at 37° C. The pH was adjusted to 7.4 NMDA and the novel preparations to be tested were dissolved in superfusion medium. The superfusion was carried out using Mg^2+ -free medium. Tritium from the dissolved sections and from the superfusate was determined by liquid scintillation counting using a Packard® 1900 CA (Frankfurt) at a 50% efficiency.
Calculation of the Results
Basal release and NMDA-stimulated release for S1 and S2 were expressed in %/min of each fraction (Limberger et al, Naunyn Schmied. Arch. Pharmacol. 339 (1988), 53-61).
The value for the stimulated release S2 /S1 was calculated for the control as 0.69±0.09. The value decreases if a substance, such as, for example, the NMDA receptor antagonist CPP (3-(+)-2-carboxypiperazin-4-ylpropyl-1-phosphonic acid) known from the literature inhibited the NMDA-stimulated release. The inhibition of the stimulated release by preparations was calculated in percent, relative to the control value, and is indicated in Table 4.

[2] = tested on: NMDA receptor-channel complex; assay: Inhibition of 3H-MK-801 binding to membranes from rat brain; conditions: preparation concentration 50 μM; 3H-MK801 1 nM
Procedure: 3. Inhibition of ^3 H-MK-801 binding to membranes from rat brain
Test principle: MK-801 is a non-competitive antagonist which binds to ion channels coupled to NMDA receptors (Yoneda et al., Brain Res. 499 (1989), 305). Membranes from whole brain containing preparation and ^3 H-MK-801 are incubated in the test. The binding of ^3 H-MK-801 or its displacement by preparations (antagonists) is determined by radiochemical methods.
Experimental protocol: The binding experiments are carried out by the method of Reynolds et al. (Proc. Natl. Acad. Sci. USA, 84 (1987), 7744). Membrane preparation is first carried out according to Reynolds. Test samples are then pipetted, buffer and test preparation being initially introduced, then preincubated with protein for 2 minutes, and initiated using ^3 H-MK801. The membranes are thawed at 37° C., incubated at 37° C. for 10 minutes and homogenized for 15 seconds at half the maximum speed by means of a Polytron, then used in the cool state again. The incubation medium contains: pH 7.4 Hepes buffer 20 mM, preparations in three concentrations 5 μM, 10 μM and 50 μM, membranes 500 μg/ml of test solution, ^3 H-MK801 1 nM. Incubation is carried out at room temperature (23° C.) for 60 minutes and is then stopped by filtration. For this purpose, glass fiber paper No. 32 from Schleicher and Schull, which had been soaked in 0.03% polyethyleneimine for 30 minutes on the day before the experiment are counted in 4 ml of "Packard 199™" Scintillation fluid (Frankfurt). Tritium is determined by liquid scintillation counting using a Packard 1500.
Calculation of the results: The calculation of the binding in femtomol/mg of protein over a period of 60 min. was carried out using a small calculator (HP-97). If a substance antagonizes the binding, the value decreases. Substance activities are indicated in Table 5 as percentages, i.e. in % binding compared to the control. The activity of the comparison preparation CPP (3-(+)-2-carboxypiperazin-4-ylpropyl-1-phosphonic acid) at 5 μM, 10 μM and 50 μM is always determined to check the test.

[3] = tested on: high affinity 3H-D-aspartate absorption, synaptic vesicles (synaptosomes) from rat cortex; assay: "High affinity" absorption of 3H-aspartate in a vesicle preparation from rat brain; format: biochemical; conditions: relative to control values (100%)
Procedure: 1. "High affinity" absorption of ^3 H-aspartate in a vesicle preparation from rat brain.
Test principle: Fresh synaptic vesicles (synaptosomes) from rat cortex are incubated with buffer solution and ^3 H-D-aspartate and ^3 H-D-aspartate in the vesicles is measured. Preparations which in comparison to control synaptosomes increase the high affinity ^3 H-D-aspartate absorption and those which prevent the loss of ^3 H-D-aspartate by reliberation are regarded as particularly interesting.
Experimental protocol: The experiments for ^3 H-D-aspartate absorption were carried out by the method of Anand et al. (Biochem. Pharmacol., 35 (1986), 1055-1057). The synaptic vesicles were dissected out of cerebral cortex from male Sprague-Dawley rats. The preparations were tested at four concentrations as double samples in parallel with control samples containing buffer. The incubation medium (pH 7.4) contains: 1.2 mM KH2 PO4, 5 mM KCl, 5 mM pyruvate, 1.2 mM glucose, 1.2 mM MgCl2, 114 mM NaCl, 25 mM NaHCO3. For the non-specific ^3 H-D-aspartate absorption, NaCl was replaced by 114 mM choline chloride and NaHCO3 by 25 mM KHCO3. An aliquot of the vesicle suspension (about 25 μg/ml of test solution) was added to the test sample which was temperature controlled at 37° C. and aerated with Carbogen (5% CO2, 95% O2) and preincubated for 2 minutes. The three minutes incubation for the amino acid absorption was started by addition of 50 μl of ^3 H-D-aspartate (specific activity 25 Ci/mmol, 10 pmol/ml of test solution). The vesicles were separated from the incubation medium by filtration and additional washing of the adhering labeled amino acids using a Titertek cell harvester (Flow Laboratories, Meckenheim). The ^3 H-D-aspartate absorption was measured by means of a liquid scintillation counter (Canberra-Packard, Model 1500, Frankfurt).
The preparation activity is indicated in percent of the specific ^3 H-D-aspartate absorption, relative to control values (100%), in Table 3. Adenosine triphosphate (ATP) was used for comparison as the standard substance (see Table 3) and at 1 mM caused a 35% increase in the ^3 H-D-aspartate absorption.

[4] = Toxicity (LD50) in the mouse; conditions: in vivo, iv
From the text: As the examples investigated show considerable differences in toxicity compared to the standard substances, the LD50 values are also listed in Table 6,

NMDA-induced cramps = assay: Inhibition of NMDA-induced cramps in the mouse; format: in vivo; conditions: po, 1 h
Procedure: 4. Inhibition of NMDA-induced-cramps in the mouse
The examples listed below show neuroprotective activity in that they antagonize the cramps induced by NMDA (N-methyl-(D)-aspartate). To this end, intravenous injections of 20-30 mg/kg of NMDA are carried out on a male NMRI (Naval Medical Research Institute) mice of 22-24 g body weight, which leads to stereotypes, clonic cramps and in the majority of cases to mortality. In order to investigate an NMDA-antagonist activity of the test substances, they are administered orally one hour before NMDA. The animals are then observed for the abovementioned symptoms for up to 60 min. The number of animals with clonic cramps and the incidence of mortality, expressed in percent change compared to the control group, is regarded as the evaluation criterion.

[5] = tested on: CA1 pyramidal cells of the hippocampus after forebrain ischemia; assay: Neuroprotection after forebrain ischemia in the gerbil; conditions: 15 minutes before ischemia; for Cell necroses (% change): histopathological score CA1, treated versus control group; for Behavior score (% change): treated versus control group
Procedure: A 5-minutes' ischemia of the forebrain with subsequent recirculation is produced in 20 male Mongolian gerbils under halothane anesthesia by bilateral closure of the corotid artery by means of aneurysm clips. 7 days later, the animals are decapitated under halothane anesthesia, the brains are fixed by immersion in Carnoy solution and the extent of neuron damage in the CA1 region of the hippocampus is determined "blind" with the aid of a 5-stage histopathological score. The test substance is administered intraperitoneally or orally 15 minutes before ischemia to each group of 10 gerbils. One ischemic control group, also of 10 animals, is treated with the respective solvents per test substance.

[6] = preparation concentration 10 μM, 25 μmol/l NMDA stimulus, relative to control S2/S1, read-out: Inhibition of 3H-acetylcholine release from striatum sections, Inhibition (%)
[7] = preparation concentration 500 μM
[8] = read-out: Inhibition of 3H-acetylcholine release from striatum sections, Inhibition (%)
[9] = 50 mg/kg p.o., one hour before NMDA i.v., change compared to control group, read-out: Inhibition of convulsions
[10] = read-out: Inhibition of mortality
[11] = preparation concentration 10 μM
[12] = preparation concentration 100 μM

`CC(C)[C@H]1CC[C@H](C)C[C@@H]1OC(=O)CCc1cc(CN)on1` [Example 7, (+)-menthyl 5-aminomethylisoxazole-3-propionate toluene-4-sulfonate] gave an inhibition at 10 µM [1, 6] of 28%.

For `O=C(O)C1CN(CCCP(=O)(O)O)CCN1` (racemic) [CPP, 3-(+)-2-carboxypiperazin-4-ylpropyl-1-phosphonic acid, reference compound], the “Inhibition of 3H-MK-801 binding to the NMDA receptor-channel complex, inhibition (%)” value (from here on “Inhibition of 3H-MK-801 binding … (%)”) [2] was 81% and the inhibition at 10 µM [1, 6] was 30%.

With `O=C(O)C1=NOC(C(=O)O)C1` (stereo not drawn) [Example 56, 3,5-dicarboxyl-2-isoxazoline] the inhibition at 10 µM [1, 6] was 11% and the “Stimulation of the 3H-D-aspartate absorption, Stimulation (%)” value (“Stimulation … (%)” below) [3, 7] was 17%.

For `O=C(O)CCc1cc(CO)on1` [Example 59, 5-Hydroxylmethyl-isoxazole-3-propionate sodium salt], the inhibition at 10 µM [1, 8] was 26%.

`CC(C)[C@H]1CC[C@H](C)C[C@@H]1OC(=O)CCc1cc(CNC(=O)[C@@H](N)Cc2ccccc2)on1` [Example 20, (+)-Menthyl 5-(L-phenylalanylamino)methylisoxazole-3propionate hydrochloride] showed an LD50 [4] of 25 to 50 mg/kg, an inhibition at 10 µM [1, 6] of 18% and an inhibition in vivo at 50 mg/kg (NMDA-induced cramps; [9]) of 10%. It also gave an inhibition in vivo at 50 mg/kg (NMDA-induced cramps; [10]) of 100%.

With `Cl.NCc1cc(CCC(=O)OCc2ccccc2)no1` [Example 5, Benzyl 5-aminomethylisoxazole-3-propionate hydrochloride] the “Inhibition of 3H-MK-801 binding … (%)” value [2] was 78% and the “Stimulation … (%)” value [3, 11] was 26%.

In the case of `CC(C)[C@@H]1CC[C@@H](C)C[C@H]1OC(=O)CCc1cc(CN)on1` [Example 8, (-)-menthyl 5-aminomethylisoxazole-3-propionate toluene-4-sulfonate], the LD50 [4] is reported as 50 to 100 mg/kg, the “Cell necroses (% change)” value ([5]; 50 mg/kg p.o.) is reported as -46 % change and the “Behavior score (% change)” value ([5]; 50 mg/kg p.o.) is reported as 0 % change. The inhibition at 10 µM [1, 6] was 30%, the inhibition in vivo at 50 mg/kg (NMDA-induced cramps; [9]) was 70% and the inhibition in vivo at 50 mg/kg (NMDA-induced cramps; [10]) was 100%. For the same molecule, the “Stimulation … (%)” value [3, 11] was 13%.

For `CC(C)[C@@H]1CC[C@@H](C)C[C@H]1OC(=O)CCc1cc(C[N+](C)(C)C)on1` [Example 18, (-)-Menthyl 5-trimethylammoniomethylisoxazole-3-propionate iodide], the “Cell necroses (% change)” value ([5]; 50 mg/kg p.o.) was -23 % change, the “Behavior score (% change)” value ([5]; 50 mg/kg p.o.) was “+15 % change” and the inhibition at 10 µM [1, 6] was 22%. The “Stimulation … (%)” value [3, 12] was 46%.

In the case of `O=C(O)CCC1=NOC(c2ccccn2)C1` (stereo not drawn) [Example 33, 3-(2-Carboxyethyl)-5-(2-pyridyl)-2-isoxazoline], the inhibition at 10 µM [1, 6] is reported as 26%.

For `COC(=O)CCC1CC(CN)=NO1` (stereo not drawn) [Example 34, Methyl 3-aminomethyl-2-isoxazoline-5-propionate toluene-4-sulfonate], the inhibition at 10 µM [1, 8] was 9%.

For `O=C(O)c1cc(CNCc2ccccc2)on1` [Example 2, 5-Benzylaminomethyl-3-carboxyisoxazole], the “Inhibition of 3H-MK-801 binding … (%)” value [2] was 10% and the “Stimulation … (%)” value [3, 7] was 12%.

For `CC(C)[C@@H]1CC[C@@H](C)C[C@H]1OC(=O)C1CC(C(=O)O)=NO1` (single isomer, unassigned; (-)) [Example 57, (-)-menthyl-3-carboxy-2-isoxazoline-5-yl-carboxylatedicyclohexylammonium salt], the “Inhibition of 3H-MK-801 binding … (%)” value [2] was 43%.

In the case of `COC(=O)CCc1cc(CNC(=O)[C@@H](N)Cc2ccccc2)on1.Cl` [Example 22, Methyl 5-(L-phenylalanylamino)methylisoxazole-3-propionate hydrochloride], the inhibition at 10 µM [1, 6] is reported as 15% and the “Stimulation … (%)” value [3, 12] is reported as 23%.

In the case of `NCc1cc(C(=O)O)no1` [Example 1, 3-Carboxy-5-aminomethylisoxazole], the LD50 [4] is reported as > 200 mg/kg, the inhibition at 10 µM [1, 6] is reported as 13% and the inhibition in vivo at 63 mg/kg (NMDA-induced cramps; 63 mg/kg p.o., one hour before NMDA i.v., change compared to control group, read-out: Inhibition of convulsions) is reported as 50%. For the same molecule, the “Stimulation … (%)” value [3, 7] was 15%.

In the case of `NCc1cc(CCC(=O)O)no1` [Example 12, 5-Aminomethylisoxazole-3-propionic acid], the LD50 [4] is reported as > 100 mg/kg, the “Cell necroses (% change)” value ([5]; 10 mg/kg i.p.) is reported as -32 % change and the “Behavior score (% change)” value ([5]; 10 mg/kg i.p.) is reported as 0 % change. The “Cell necroses (% change)” value ([5]; 50 mg/kg p.o.) was -14 % change, the “Behavior score (% change)” value ([5]; 50 mg/kg p.o.) was 0 % change and the inhibition in vivo at 50 mg/kg (NMDA-induced cramps; [9]) was 45%. For the same molecule, the inhibition in vivo at 50 mg/kg (NMDA-induced cramps; [10]) was 60% and the “Stimulation … (%)” value [3, 7] was 17%.
